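Exposure lasted 48 hours, with cells grown in 96-well plates and compounds tested at five concentrations. Abbreviation: GI50, concentration required for 50% inhibition of growth. Definition used: TGI = concentration required for complete inhibition of growth.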
Tests used:
Assay in all cases: growth of human tumour cells (NCI), 48 h
TK-10 renal = system: TK-10 renal
SK-OV-3 ovarian = system: SK-OV-3 ovarian
HCC-2998 colon = system: HCC-2998 colon
SR leukemia = system: SR leukemia
SW-620 colon = system: SW-620 colon
KM12 colon = system: KM12 colon
NCI/ADR-RES ovarian = system: NCI/ADR-RES ovarian
MDA-MB-231 breast = system: MDA-MB-231 breast
COLO 205 colon = system: COLO 205 colon
CCRF-CEM leukemia = system: CCRF-CEM leukemia
SNB-75 CNS = system: SNB-75 CNS
BT-549 breast = system: BT-549 breast
NCI-H23 lung = system: NCI-H23 lung
HCT-15 colon = system: HCT-15 colon
U251 CNS = system: U251 CNS
SF-295 CNS = system: SF-295 CNS
M14 melanoma = system: M14 melanoma
MALME-3M melanoma = system: MALME-3M melanoma
SNB-19 CNS = system: SNB-19 CNS
RPMI-8226 leukemia = system: RPMI-8226 leukemia
HT29 colon = system: HT29 colon
HL-60(TB) leukemia = system: HL-60(TB) leukemia
OVCAR-4 ovarian = system: OVCAR-4 ovarian
OVCAR-5 ovarian = system: OVCAR-5 ovarian
ACHN renal = system: ACHN renal
786-0 renal = system: 786-0 renal
UO-31 renal = system: UO-31 renal
PC-3 prostate = system: PC-3 prostate
SK-MEL-28 melanoma = system: SK-MEL-28 melanoma
SF-539 CNS = system: SF-539 CNS
SF-268 CNS = system: SF-268 CNS
NCI-H522 lung = system: NCI-H522 lung
MCF7 breast = system: MCF7 breast
UACC-62 melanoma = system: UACC-62 melanoma
SK-MEL-5 melanoma = system: SK-MEL-5 melanoma
HOP-62 NSCLC = system: HOP-62 NSCLC
A498 renal = system: A498 renal
CAKI-1 renal = system: CAKI-1 renal
T-47D breast = system: T-47D breast
A549 NSCLC = system: A549 NSCLC
OVCAR-3 ovarian = system: OVCAR-3 ovarian
NCI-H226 lung = system: NCI-H226 lung
RXF 393 renal = system: RXF 393 renal
UACC-257 melanoma = system: UACC-257 melanoma
NCI-H460 lung = system: NCI-H460 lung
DU-145 prostate = system: DU-145 prostate
MDA-MB-435 = system: MDA-MB-435
OVCAR-8 ovarian = system: OVCAR-8 ovarian
SN12C renal = system: SN12C renal
IGROV1 ovarian = system: IGROV1 ovarian
HS 578T breast = system: HS 578T breast
MOLT-4 leukemia = system: MOLT-4 leukemia

Compound: O=C(/C=C/c1ccc(Cl)cc1)/C=C/c1cc2ccccc2[nH]c1=O
- GI50 (TK-10 renal): 12.3 µM
- TGI (TK-10 renal): 31.8 µM
- GI50 (SK-OV-3 ovarian): 12.2 µM
- TGI (SK-OV-3 ovarian): 32.7 µM
- GI50 (HCC-2998 colon): 2.02 µM
- TGI (HCC-2998 colon): 3.62 µM
- GI50 (SR leukemia): 2.42 µM
- TGI (SR leukemia): 8.19 µM
- GI50 (SW-620 colon): 2.31 µM
- TGI (SW-620 colon): 5.82 µM
- GI50 (KM12 colon): 3.11 µM
- TGI (KM12 colon): 10.3 µM
- GI50 (NCI/ADR-RES ovarian): 16.8 µM
- TGI (NCI/ADR-RES ovarian): > 100 µM
- GI50 (MDA-MB-231 breast): 2.64 µM
- TGI (MDA-MB-231 breast): 7.82 µM
- GI50 (COLO 205 colon): 3.65 µM
- TGI (COLO 205 colon): 11.7 µM
- GI50 (CCRF-CEM leukemia): 3.09 µM
- TGI (CCRF-CEM leukemia): 9.74 µM
- GI50 (SNB-75 CNS): 5.79 µM
- TGI (SNB-75 CNS): 24.7 µM
- GI50 (BT-549 breast): 3.29 µM
- TGI (BT-549 breast): 11.7 µM
- GI50 (NCI-H23 lung): 4.76 µM
- TGI (NCI-H23 lung): 23.5 µM
- GI50 (HCT-15 colon): 2.85 µM
- TGI (HCT-15 colon): 14.6 µM
- GI50 (U251 CNS): 1.81 µM
- TGI (U251 CNS): 3.68 µM
- GI50 (SF-295 CNS): 3.48 µM
- TGI (SF-295 CNS): 13.2 µM
- GI50 (M14 melanoma): 3.11 µM
- TGI (M14 melanoma): 13.4 µM
- GI50 (MALME-3M melanoma): 7.63 µM
- TGI (MALME-3M melanoma): 38.4 µM
- GI50 (SNB-19 CNS): 11.3 µM
- TGI (SNB-19 CNS): 24.7 µM
- GI50 (RPMI-8226 leukemia): 1.29 µM
- TGI (RPMI-8226 leukemia): 4.65 µM
- GI50 (HT29 colon): 2.5 µM
- TGI (HT29 colon): 6.33 µM
- GI50 (HL-60(TB) leukemia): 2.83 µM
- TGI (HL-60(TB) leukemia): 8.39 µM
- GI50 (OVCAR-4 ovarian): 5.06 µM
- TGI (OVCAR-4 ovarian): 74.3 µM
- GI50 (OVCAR-5 ovarian): 4.65 µM
- TGI (OVCAR-5 ovarian): 19.6 µM
- GI50 (ACHN renal): 4.96 µM
- TGI (ACHN renal): 20.3 µM
- GI50 (786-0 renal): 2.02 µM
- TGI (786-0 renal): 4.16 µM
- GI50 (UO-31 renal): 4.28 µM
- TGI (UO-31 renal): 20 µM
- GI50 (PC-3 prostate): 2.91 µM
- TGI (PC-3 prostate): 13.7 µM
- GI50 (SK-MEL-28 melanoma): 10 µM
- TGI (SK-MEL-28 melanoma): 26.2 µM
- GI50 (SF-539 CNS): 2.88 µM
- TGI (SF-539 CNS): 9.37 µM
- GI50 (SF-268 CNS): 3.61 µM
- TGI (SF-268 CNS): 16 µM
- GI50 (NCI-H522 lung): 1.91 µM
- TGI (NCI-H522 lung): 5.4 µM
- GI50 (MCF7 breast): 0.923 µM
- TGI (MCF7 breast): 8.45 µM
- GI50 (UACC-62 melanoma): 2.8 µM
- TGI (UACC-62 melanoma): 10.5 µM
- GI50 (SK-MEL-5 melanoma): 10.1 µM
- TGI (SK-MEL-5 melanoma): 25.2 µM
- GI50 (HOP-62 NSCLC): 8.21 µM
- TGI (HOP-62 NSCLC): 26 µM
- GI50 (A498 renal): 5.87 µM
- TGI (A498 renal): 18.8 µM
- GI50 (CAKI-1 renal): 4.38 µM
- TGI (CAKI-1 renal): 21.8 µM
- GI50 (T-47D breast): 3.46 µM
- TGI (T-47D breast): 22.7 µM
- GI50 (A549 NSCLC): 3.16 µM
- TGI (A549 NSCLC): 48.9 µM
- GI50 (OVCAR-3 ovarian): 2.07 µM
- TGI (OVCAR-3 ovarian): 4.5 µM
- GI50 (NCI-H226 lung): 2.59 µM
- TGI (NCI-H226 lung): 11.4 µM
- GI50 (RXF 393 renal): 2.81 µM
- TGI (RXF 393 renal): 8.88 µM
- GI50 (UACC-257 melanoma): 5.2 µM
- TGI (UACC-257 melanoma): 19.6 µM
- GI50 (NCI-H460 lung): 8.52 µM
- TGI (NCI-H460 lung): 28.9 µM
- GI50 (DU-145 prostate): 3.52 µM
- TGI (DU-145 prostate): 11.7 µM
- GI50 (MDA-MB-435): 2.34 µM
- TGI (MDA-MB-435): 5.63 µM
- GI50 (OVCAR-8 ovarian): 3.03 µM
- TGI (OVCAR-8 ovarian): 12.9 µM
- GI50 (SN12C renal): 3.67 µM
- TGI (SN12C renal): 17.4 µM
- GI50 (IGROV1 ovarian): 2.34 µM
- TGI (IGROV1 ovarian): 5.5 µM
- GI50 (HS 578T breast): 4.14 µM
- TGI (HS 578T breast): 66.6 µM
- GI50 (MOLT-4 leukemia): 3.82 µM
- TGI (MOLT-4 leukemia): 13.8 µM
